In patent US7569549B2, “Isostructural pseudopolymorphs of 9-deoxo-9a-aza-9a-methyl-9a-homoerythromycin A” (Pliva Hrvatska D.O.O., priority 2002, dated 2009):

Experiments:
[1] = Dissolution profiles by USP Method 2 (PharmaTest Dissolution Tester), dissolved content by HPLC; format: physicochemical
Method: The comparative dissolution profiles were determined by USP Method 2, PharmaTest Dissolution Tester, PTW SII; the content of dissolved 9-deoxo-9a-aza-9a-methyl-9a-homoerythromycin A was measured by HPLC. The data thus obtained are set forth in Table 6 below, and plotted in FIGS. 17 and 18.
The comparative dissolution profiles were determined by USP Method 2, PharmaTest Dissolution Tester, PTW SII; the content of dissolved 9-deoxo-9a-aza-9a-methyl-9a-homoerythromycin A was measured by HPLC. The data thus obtained are set forth in Table 9 below, and plotted in FIG. 22.

[2] = Intrinsic dissolution rate (Intrinsic Dissolution Tester, Van Kel Type); format: physicochemical; conditions: pH 3 and pH 6, 37° C.
Method: In addition to the above data, the intrinsic dissolution rates (IDR's) for the new pseudopolymorph of the invention and the commercial dihydrate, at pH 3 and pH 6 and 37° C., were determined by Intrinsic Dissolution Tester, Van Kel Type.

in vivo = conditions: rat, 50 mg/kg
Source text: 32 animals were studied using a cross-over experimental design experiment. A non-compartmental analysis was used to determine the concentrations of the respective materials in whole blood and plasma as a function of time.

[3] = Similarity factors (f2) calculated for the dissolution profiles; format: physicochemical
Method: In order to further assess the data from Table 6, similarity factors (f2) were calculated according to the method described in Note for Guidance on the Investigation of Bioavailability and Bioequivalence (EMEA, December 1998, London) for the dissolution profiles of the two species (9-deoxo-9a-aza-9a-methyl-9a-homoerythromycin A, pseudopolymorph Ia of the present invention, and commercial 9-deoxo-9a-aza-9a-methyl-9a-homoerythromycin A dihydrate).

[4] = Solid state stability by X-ray powder diffraction at varied humidity and temperature; format: physicochemical; conditions: 5% RH to 75% RH; 30° C. to 75° C.
Method: The solid state stability of the 9-deoxo-9a-aza-9a-methyl-9a-homoerythromycin A pseudopolymorph Ia (x=1, y=0) was determined by measuring the solid state x-ray powder diffraction pattern for this material at four different percent relative humidities (% RH), ranging from 5% RH to 75% RH, and at five different temperatures, increasing from 30° C. to 75° C. using Philips X'PertPRO powder X-ray diffractometer equipped with Anton Paar TTK-100 humidity camera used for non-ambient data collection.

A Percent dissolved ([1]; pH 6, 37° C., 5 minutes, listed as Ik (Example 6)) of 99.8%, a Percent dissolved ([1]; pH 6, 37° C., 10 minutes, listed as Ik (Example 6)) of 99.9% and a Percent dissolved ([1]; pH 6, 37° C., 20 minutes, listed as Ik (Example 6)) of 97.1% were found for `CC[C@H]1OC(=O)[C@H](C)[C@@H](O[C@H]2C[C@@](C)(OC)[C@@H](O)[C@H](C)O2)[C@H](C)[C@@H](O[C@@H]2O[C@H](C)C[C@H](N(C)C)[C@H]2O)[C@](C)(O)C[C@@H](C)CN(C)[C@H](C)[C@@H](O)[C@]1(C)O` [Pseudopolymorph Ik, 9-deoxo-9a-aza-9a-methyl-9a-homoerythromycin A] in this work. The Percent dissolved ([1]; pH 6, 37° C., 45 minutes, listed as Ik (Example 6)) was 97.6%.

A Percent dissolved ([1]; pH 3, 37° C., 5 minutes) of 3.9%, a Percent dissolved ([1]; pH 3, 37° C., 10 minutes) of 8.1% and a Percent dissolved ([1]; pH 3, 37° C., 20 minutes) of 14.6% were found for `CC[C@H]1OC(=O)[C@H](C)[C@@H](O[C@H]2C[C@@](C)(OC)[C@@H](O)[C@H](C)O2)C(C)[C@@H](O[C@@H]2O[C@H](C)CC(N(C)C)[C@H]2O)[C@](C)(O)C[C@@H](C)CN(C)[C@H](C)[C@@H](O)[C@]1(C)O` (stereo partly shown) [9-deoxo-9a-aza-9a-methyl-9a-homoerythromycin A dihydrate, reference compound] in this work. The Percent dissolved ([1]; pH 3, 37° C., 45 minutes) was 26.7%, the Percent dissolved ([1]; pH 3, 37° C., 60 minutes) was 33.3% and the Percent dissolved ([1]; pH 3, 37° C., 90 minutes) was 39.1%. For the same compound, the Percent dissolved ([1]; pH 6, 37° C., 5 minutes) was 14.5%, the Percent dissolved ([1]; pH 6, 37° C., 10 minutes) was 27.3% and the Percent dissolved ([1]; pH 6, 37° C., 20 minutes) was 44.2%. The Percent dissolved ([1]; pH 6, 37° C., 45 minutes) was 69.1%, the Percent dissolved ([1]; pH 6, 37° C., 60 minutes) was 73.7% and the Percent dissolved ([1]; pH 6, 37° C., 90 minutes) was 75.0%. For the same compound, the “Intrinsic dissolution rate (IDR)” value [2] was “about 1.8 mg min^−1 cm^−2”, the “AUC(0-48)” value (in vivo) was 31696.6 nghr/ml and the Tmax (in vivo; po) was 2 h.

With `CC[C@H]1OC(=O)[C@H](C)[C@@H](O[C@H]2C[C@@](C)(OC)[C@@H](O)[C@H](C)O2)[C@H](C)[C@@H](O[C@@H]2O[C@H](C)C[C@H](N(C)C)[C@H]2O)[C@](C)(O)C[C@@H](C)CN(C)[C@H](C)[C@@H](O)[C@]1(C)O` [Pseudopolymorph Ia, 9-deoxo-9a-aza-9a-methyl-9a-homoerythromycin A] the “Similarity factor (f2)” value ([3]; Batch 1 vs. Batch 2 of Example 19, pH = 3) was 61.3, the “Similarity factor (f2)” value ([3]; Batch 1 vs. Batch 2 of Example 19, pH = 6) was 63.1 and the “Similarity factor (f2)” value ([3]; Batch 1 vs. Batch 3 of Example 19, pH = 3) was 74.7. For the same compound, the “Similarity factor (f2)” value ([3]; Batch 1 vs. Batch 3 of Example 19, pH = 6) was 75.4, the “Similarity factor (f2)” value ([3]; Batch 2 vs. Batch 3 of Example 19, pH = 3) was 71.3 and the “Similarity factor (f2)” value ([3]; Batch 2 vs. Batch 3 of Example 19, pH = 6) was 75.3. The “Similarity factor (f2)” value ([3]; Dihydrate vs. Batch 1 of Example 19, pH = 3) was 28.6, the “Similarity factor (f2)” value ([3]; Dihydrate vs. Batch 1 of Example 19, pH = 6) was 25 and the “Similarity factor (f2)” value ([3]; Dihydrate vs. Batch 2 of Example 19, pH = 3) was 27.5. The “Similarity factor (f2)” value ([3]; Dihydrate vs. Batch 2 of Example 19, pH = 6) was 22.2, the “Similarity factor (f2)” value ([3]; Dihydrate vs. Batch 3 of Example 19, pH = 3) was 29.4 and the “Similarity factor (f2)” value ([3]; Dihydrate vs. Batch 3 of Example 19, pH = 6) was 23.7. The Percent dissolved ([1]; pH 3, 37° C., 5 minutes, listed as Ia (Example 19, Batch 1)) was 25.1%, the Percent dissolved ([1]; pH 3, 37° C., 5 minutes, listed as Ia (Example 19, Batch 3)) was 21.1% and the Percent dissolved ([1]; pH 3, 37° C., 5 minutes, listed as Ia (Example 19 Batch 2)) was 18.5%. It also gave a Percent dissolved ([1]; pH 3, 37° C., 10 minutes, listed as Ia (Example 19, Batch 1)) of 37.1%, a Percent dissolved ([1]; pH 3, 37° C., 10 minutes, listed as Ia (Example 19, Batch 3)) of 32.4% and a Percent dissolved ([1]; pH 3, 37° C., 10 minutes, listed as Ia (Example 19 Batch 2)) of 30.7%. It also gave a Percent dissolved ([1]; pH 3, 37° C., 20 minutes, listed as Ia (Example 19, Batch 1)) of 45.8%, a Percent dissolved ([1]; pH 3, 37° C., 20 minutes, listed as Ia (Example 19, Batch 3)) of 43.3% and a Percent dissolved ([1]; pH 3, 37° C., 20 minutes, listed as Ia (Example 19 Batch 2)) of 45.1%. It also gave a Percent dissolved ([1]; pH 3, 37° C., 45 minutes, listed as Ia (Example 19, Batch 1)) of 55.5%, a Percent dissolved ([1]; pH 3, 37° C., 45 minutes, listed as Ia (Example 19, Batch 3)) of 56% and a Percent dissolved ([1]; pH 3, 37° C., 45 minutes, listed as Ia (Example 19 Batch 2)) of 60.9%. It also gave a Percent dissolved ([1]; pH 3, 37° C., 60 minutes, listed as Ia (Example 19, Batch 1)) of 58.3%, a Percent dissolved ([1]; pH 3, 37° C., 60 minutes, listed as Ia (Example 19, Batch 3)) of 61.1% and a Percent dissolved ([1]; pH 3, 37° C., 60 minutes, listed as Ia (Example 19 Batch 2)) of 64.8%. It also gave a Percent dissolved ([1]; pH 3, 37° C., 90 minutes, listed as Ia (Example 19, Batch 1)) of 62.9%, a Percent dissolved ([1]; pH 3, 37° C., 90 minutes, listed as Ia (Example 19, Batch 3)) of 64.7% and a Percent dissolved ([1]; pH 3, 37° C., 90 minutes, listed as Ia (Example 19 Batch 2)) of 70%. It also gave a Percent dissolved ([1]; pH 6, 37° C., 5 minutes, listed as Ia (Example 19, Batch 1)) of 67.0%, a Percent dissolved ([1]; pH 6, 37° C., 5 minutes, listed as Ia (Example 19, Batch 3)) of 70.2% and a Percent dissolved ([1]; pH 6, 37° C., 5 minutes, listed as Ia (Example 19 Batch 2)) of 71.7%. For the same compound, the Percent dissolved ([1]; pH 6, 37° C., 10 minutes, listed as Ia (Example 19, Batch 1)) was 73.2%, the Percent dissolved ([1]; pH 6, 37° C., 10 minutes, listed as Ia (Example 19, Batch 3)) was 77.3% and the Percent dissolved ([1]; pH 6, 37° C., 10 minutes, listed as Ia (Example 19 Batch 2)) was 81.4%. It also gave a Percent dissolved ([1]; pH 6, 37° C., 20 minutes, listed as Ia (Example 19, Batch 1)) of 76.7%, a Percent dissolved ([1]; pH 6, 37° C., 20 minutes, listed as Ia (Example 19, Batch 3)) of 77% and a Percent dissolved ([1]; pH 6, 37° C., 20 minutes, listed as Ia (Example 19 Batch 2)) of 81.6%. For the same compound, the Percent dissolved ([1]; pH 6, 37° C., 45 minutes, listed as Ia (Example 19, Batch 1)) was 76.7%, the Percent dissolved ([1]; pH 6, 37° C., 45 minutes, listed as Ia (Example 19, Batch 3)) was 77.6% and the Percent dissolved ([1]; pH 6, 37° C., 45 minutes, listed as Ia (Example 19 Batch 2)) was 80.4%. For the same compound, the Percent dissolved ([1]; pH 6, 37° C., 60 minutes, listed as Ia (Example 19, Batch 1)) was 74.5%, the Percent dissolved ([1]; pH 6, 37° C., 60 minutes, listed as Ia (Example 19, Batch 3)) was 78% and the Percent dissolved ([1]; pH 6, 37° C., 60 minutes, listed as Ia (Example 19 Batch 2)) was 79.9%. It also gave a Percent dissolved ([1]; pH 6, 37° C., 90 minutes, listed as Ia (Example 19, Batch 1)) of 75.8%, a Percent dissolved ([1]; pH 6, 37° C., 90 minutes, listed as Ia (Example 19, Batch 3)) of 79.2% and a Percent dissolved ([1]; pH 6, 37° C., 90 minutes, listed as Ia (Example 19 Batch 2)) of 80%. The “Intrinsic dissolution rate (IDR)” value [2] was 2.5-2.8 mg min^−1 cm^−2, the “IDR higher than the IDR of the dihydrate” value ([2]; relative to dihydrate) was 40 to 50% and the “AUC(0-12) higher relative to the commercial dihydrate” value (in vivo) was “approximately 20%”. The “AUC(0-48)” value (in vivo) was 35659.0 nghr/ml, the Tmax (in vivo) was 2 h and the “Solid state stability (phase transitions by x-ray powder diffraction)” value [4] was “no phase-transitions occur”.
